Measurements: patent EP1145714A1, “DRUGS” (Takeda Chemical Industries, Ltd., priority 1998, dated 2000)

How the values were obtained:
Assay type in all cases: in vivo, beagle dogs
[1] = tested on: acute vomiting induced by a central emetic agent loperamide in dogs; assay: Acute vomiting induced by loperamide in dogs; settings: loperamide 1 mg/kg subcutaneous; for B: Frequency of vomiting (mean ± SD) / C: Time period until first vomiting (minute; mean ± SD) / D: Duration of vomiting (minute; mean ± SD) / Number of dogs with vomiting/number of tested dogs: 3 hours
Protocol: 3 male or female beagle dogs (7.7 to 12.7 kg) per one group were used. Loperamide was subcutaneously given at 1 mg/ml/kg. 2.5 hours prior to loperamide administration, a small amount of a feed was given to the animals. 30 minutes thereafter, predetermined doses of the compound No. 3 were orally given. Similarly, 0.5 % methyl cellulose solution was orally given to a control animal group under no fasting. Predetermined doses of naloxone and ondansetron were given intravenously and orally, respectively to the animals under fasting, 30 minutes prior to loperamide administration. The frequency of vomiting was counted, up to 3 hours after loperamide administration. The compound No. 3 was dissolved in 0.5 % methyl cellulose solution, for oral dosing at a ratio of 0.25 to 1 ml per 1 kg body weight. Additionally, naloxone was intravenously given in a solution at a concentration of 0.05 % w/v. An injection of ondansetron at a concentration of 0.2 % w/v was orally given. Still additionally, 0.5 % methyl cellulose solution was orally given at a ratio of 1 ml per 1 kg body weight. The data relating to the frequency of vomiting, the latency and the time period from the occurrence of vomiting to the termination thereof were statistically analyzed by the Dunnett test, with reference to the difference from the control group.
The vomiting suppression ratio was calculated by the following formula. [Frequency of retching or vomiting in control] - [Frequency of retching or vomiting in animals dosed with compound No. 3] / [frequency of retching or vomiting in control] x 100 (%) [formula]

[2] = tested on: morphine-induced vomiting in dogs; assay: Morphine-induced vomiting in dogs, oral dosing; settings: morphine 0.3 mg/kg subcutaneous
Protocol: Male 6 or 7 beagle dogs (8.8 to 14.5 kg) per one group were used. Morphine was subcutaneously administered at 0.3 mg/0. 03 ml/kg. 2.5 hours before morphine dosing, a small amount of a feed was given to the animals. 30 minutes thereafter, predetermined doses of the compound No. 3 were orally given. To a control animal group under no fasting was orally given a predetermined volume of 0.5 % methyl cellulose solution. A predetermined dose of ondansetron was orally given to the animals under fasting. To a control animal group of ondansetron under fasting was orally given a predetermined volume of physiological saline. The frequency of vomiting was counted up to 30 minutes after morphine dosing.
The compound No. 3 was suspended in 0.5 % methyl cellulose solution and was then orally administered at a ratio of 1 ml per 1 kg body weight. An injection of ondansetron at a concentration of 0.2 w/v % was orally dosed. Additionally, 0.5 % methyl cellulose solution was orally given at a ratio of 1 ml per 1 kg body weight, while physiological saline was orally given at a ratio of 0.5 ml per 1 kg body weight. The data relating to the frequency of vomiting, the time period (latency) until first vomiting and the time period from the occurrence of vomiting to the termination thereof were statistically analyzed by the Dunnett test or t test, with reference to the difference from the control group.
The retching suppression ratio and vomiting suppression ratio were calculated by the following formula. [Frequency of retching or vomiting in control] - [Frequency of retching or vomiting in animals dosed with compound No. 3] / [Frequency of retching or vomiting in control] x 100 (%) [formula]

[3] = tested on: vomiting induced by a central emetic agent apomorphine in dogs; assay: Vomiting induced by apomorphine in dogs; settings: apomorphine 0.1 mg/kg subcutaneous; for B: Frequency of vomiting (mean ± SD) / C: Time period until first vomiting (minute; mean ± SD) / D: Duration of vomiting (minute; mean ± SD) / Number of dogs with vomiting/number of tested dogs: one hour
Protocol: 3 male or female beagle dogs (7.8 to 15.9 kg) per one group were used. Apomorphine was subcutaneously given at 0.1 mg/ml/kg. 2.5 hours prior to apomorphine administration, a small amount of a feed was given to the animals. 30 minutes thereafter, predetermined doses of the compound No. 3 were orally given. Similarly, 0.5 % methyl cellulose solution was orally given to a control animal group under no fasting. A predetermined dose of ondansetron was given orally to the animals under fasting. The frequency of vomiting was counted in number, up to one hour after apomorphine administration. The compound No. 3 was dissolved in 0.5 % methyl cellulose solution, for oral dosing at a ratio of 1 ml per 1 kg • body weight. An injection of ondansetron at a concentration of 0.2% w/v was orally given. Additionally, 0.5 % methyl cellulose solution was orally given at a ratio of 1 ml per 1 kg • body weight. The data relating to the frequency of vomiting, the latency and the time period from the occurrence of vomiting to the termination thereof were statistically analyzed by the Dunnett test, with reference to the difference from the control group.
The vomiting suppression ratio was calculated by the following formula.

[4] = 1 mg/kg p.o., under fasting, 30 minutes

## Cc1ccc(-c2c3n(c(=O)c4ncccc24)CC[C@@H](C)CN(Cc2cc(C(F)(F)F)cc(C(F)(F)F)c2)C3=O)cc1 [Cpd. No.3, (9R)-7-[3,5-bis(trifluoromethyl)benzyl]-6,7,8,9,10,11-hexahydro-9-methyl-5-(4-methylphenyl)-6,13-dioxo-13H-[1,4]diazocino[2,1-g][1,7]naphthylidine]
[1]; 0.01 mg/kg p.o.
  Vomiting suppression ratio: 20 % NS
  B: Frequency of vomiting (mean ± SD): 8.0 ± 2.5
  C: Time period until first vomiting (minute; mean ± SD): 0.74 ± 0.07 min
  D: Duration of vomiting (minute; mean ± SD): 1.24 ± 0.21 min
  Number of dogs with vomiting/number of tested dogs: 3/3
[1]; 0.03 mg/kg or higher p.o.
  Effect on vomiting (in words): significantly suppressed
[1]; 0.03 mg/kg p.o.
  Vomiting suppression ratio: 80 % a
  B: Frequency of vomiting (mean ± SD): 2.0 ± 0.6 a
  C: Time period until first vomiting (minute; mean ± SD): 1.08 ± 0.11 min
  D: Duration of vomiting (minute; mean ± SD): 0.44 ± 0.22 min
  Number of dogs with vomiting/number of tested dogs: 3/3
[1]; 0.1 mg/kg p.o.
  Vomiting suppression ratio: 73 % a
  B: Frequency of vomiting (mean ± SD): 2.7 ± 2.2 a
  C: Time period until first vomiting (minute; mean ± SD): 1.98 ± 0.55 a minute
  D: Duration of vomiting (minute; mean ± SD): 0.59 ± 0.59 min
  Number of dogs with vomiting/number of tested dogs: 2/3
[1]; 1 mg/kg p.o.
  Vomiting suppression ratio: 67 % a
  B: Frequency of vomiting (mean ± SD): 3.3 ± 1.2 a
  C: Time period until first vomiting (minute; mean ± SD): 1.25 ± 0.35 min
  D: Duration of vomiting (minute; mean ± SD): 0.68 ± 0.34 min
  Number of dogs with vomiting/number of tested dogs: 3/3
[1]; 3 mg/kg p.o.
  Vomiting suppression ratio: 70 % a
  B: Frequency of vomiting (mean ± SD): 3.0 ± 0.6 a
  C: Time period until first vomiting (minute; mean ± SD): 1.63 ± 0.34 min
  D: Duration of vomiting (minute; mean ± SD): 0.38 ± 0.13 a minute
  Number of dogs with vomiting/number of tested dogs: 3/3
[1]; 10 mg/kg p.o.
  Effect on vomiting (in words): completely suppressed
  Vomiting suppression ratio: 100 % b
  B: Frequency of vomiting (mean ± SD): 0 b
  C: Time period until first vomiting (minute; mean ± SD): 3 b minute
  D: Duration of vomiting (minute; mean ± SD): 0 b minute
  Number of dogs with vomiting/number of tested dogs: 0/3
[2]; 0.1 mg/kg p.o.
  Acute vomiting suppression ratio: 55 % NS
[2]; 0.1 mg/kg p.o., 30 minutes
  B: Frequency of vomiting (mean ± 3D): 1.0 ± 0
  C: Time period until first vomiting (minute; mean ± SD): 8.7 ± 1.2 min
  D: Duration of vomiting (minute; mean ± SD): 0 min
  Number of dogs with vomiting/number of tested dogs: 3/3
[2]; 0.3 mg/kg p.o.
  Acute vomiting suppression ratio: 86 % NS
  Effect on vomiting (in words): significantly suppressed
[2]; 0.3 mg/kg p.o., 30 minutes
  B: Frequency of vomiting (mean ± 3D): 0.3 ± 0.3a
  C: Time period until first vomiting (minute; mean ± SD): 22.0 ± 8.0 a minute
  D: Duration of vomiting (minute; mean ± SD): 0 min
  Number of dogs with vomiting/number of tested dogs: 1/3
[2]; 1 mg/kg p.o.
  Acute vomiting suppression ratio: 100 % b
  Effect on vomiting (in words): completely suppressed
[2]; 1 mg/kg p.o., 30 minutes
  B: Frequency of vomiting (mean ± 3D): 0 b
  C: Time period until first vomiting (minute; mean ± SD): 30 b minute
  D: Duration of vomiting (minute; mean ± SD): 0 min
  Number of dogs with vomiting/number of tested dogs: 0/3
[3]; 3 mg/kg p.o.
  Effect on vomiting (in words): likely to be suppressed
  Vomiting suppression ratio: 48 % NS
  B: Frequency of vomiting (mean ± SD): 6.3 ± 1.3
  C: Time period until first vomiting (minute; mean ± SD): 7.2 ± 0.6 min
  D: Duration of vomiting (minute; mean ± SD): 12.0 ± 3.0 min
  Number of dogs with vomiting/number of tested dogs: 3/3
[3]; 10 mg/kg p.o.
  Effect on the duration of vomiting from the start to the termination (in words): greatly shortened
  Effect on vomiting (in words): prominently suppressed
  Vomiting suppression ratio: 89 % a
  B: Frequency of vomiting (mean ± SD): 1.3± 0.9b
  C: Time period until first vomiting (minute; mean ± SD): 27.6 ± 13.8 min
  D: Duration of vomiting (minute; mean ± SD): 1.2 ± 1.2 a minute
  Number of dogs with vomiting/number of tested dogs: 2/3

## Cc1nccn1CC1CCc2c(c3ccccc3n2C)C1=O (centres unmarked) [Ondansetron, ondansetron, reference compound]
[1]; 10 mg/kg p.o.
  Effect on vomiting (in words): did not suppress
  Vomiting suppression ratio: 3 % NS
  B: Frequency of vomiting (mean ± SD): 9.7 ± 2.7
  C: Time period until first vomiting (minute; mean ± SD): 0.50 ± 0.14 min
  D: Duration of vomiting (minute; mean ± SD): 1.30 ± 0.11 min
  Number of dogs with vomiting/number of tested dogs: 3/3
[2]; 1 mg/kg p.o.
  Acute vomiting suppression ratio: 48 % NS
  Effect on vomiting (in words): did not suppress
[2]; [4]
  B: Frequency of vomiting (mean ± SD): 1.7 ± 0.3
  C: Time period until first vomiting (minute; mean ± SD): 5.0 ± 1.0 min
  D: Duration of vomiting (minute; mean ± SD): 1.0 ± 0.6 min
  Number of dogs with vomiting/number of tested dogs: 3/3
[3]; 10 mg/kg p.o.
  Effect on vomiting (in words): did not suppress
  Vomiting suppression ratio: 0 % NS
  B: Frequency of vomiting (mean ± SD): 13.7 ± 2.4
  C: Time period until first vomiting (minute; mean ± SD): 2.4 ± 0.6 min
  D: Duration of vomiting (minute; mean ± SD): 22.8 ± 3.6 min
  Number of dogs with vomiting/number of tested dogs: 3/3
